Source: paper PMC9962283, “The Plant Derived 3-3′-Diindolylmethane (DIM) Behaves as CB2 Receptor Agonist in Prostate Cancer Cellular Models” (International Journal of Molecular Sciences, 2023)
“Also recorded” adds a separate entry of the source.

How the values were obtained:
[1] = system: PC3 cells; assay: Cell viability (MTT) assay in PC3 cells; type: cell-based, human; settings: 24 h, DIM alone
Experimental: (§1) Human prostate cancer cell lines, LNCaP and PC3, were obtained from the European Collection of Animal Cell Cultures. These were cultured in RPMI 1640 medium (Merck Life Science Ltd., Gillingham, UK) containing 10% (vol:vol) fetal bovine serum and 1% (vol:vol) Penicillin–Streptomycin Solution (10,000 U/mL penicillin and 10 mg/mL streptomycin in 0.9% sodium chloride (Merck Life Science Ltd., Gillingham, UK).
(§2) A standard 3-(4,-5-dimethylthiazol-2-yl)-2,-5-diphenyl tetrazolium bromide (MTT) dye reduction assay was used to assess compounds. Briefly, cells were plated in a flat-bottomed 96-well plate at seeding densities of 6 × 10^3 cells per well for LNCaP cells and 5 × 10^3 cells per well for PC3 cells. Cells were treated the following day with the appropriate agents for 24 h. Following the incubation period, the MTT solution (5 mg/mL in phosphate-buffered saline) was added and incubated for 4 h. The contents of the wells were removed and replaced with 200 μL DMSO to dissolve the MTT formazan crystals. The plates were immediately read at 570 nm in a multi-well plate reader (DynaTech MR5000; Dynex Technologies Ltd., Chantilly, VA, USA).
(§3) Values for half of the maximal effective concentration required to elicit a response (EC50), or for the half maximal inhibitory concentration (IC50) required to inhibit a response, as well as for maximal effect (Emax), standard error of the mean (S.E.M.) and 95% confidence limits of EC50 and IC50, have been calculated by nonlinear regression analysis using the equation for a sigmoid concentration–response curve (GraphPad Prism v5.0, San Diego, CA, USA). Paired Student’s t-test or one-way ANOVA analysis of variance (with Tukey’s post hoc analysis) was used where appropriate for cell viability and western blotting data. A value of p < 0.05 was taken as being significant.

[2] = system: cleaved caspase 3 (CASP-3); assay: Western blot of cleaved caspase 3 levels in PC3 cells; type: cell-based, human
Experimental: (§4) Cells were homogenized in lysis buffer [20 mM Tris, 0.25 M sucrose, 10 mM ethyleneglycol-bis(aminoethylether)-tetraacetic acid, 2 mM ethylenediaminetetraacetic acid, 1 mM sodium orthovanadate, 25 mM sodium β-glycerophosphate and 50 mM sodium fluoride; pH 7.5]. Prior to use, 0.1% (vol:vol), protease Inhibitor Cocktail (Merck Life Science Ltd, Gillingham, UK) was added. A total of 20 μg of protein was electrophoresed through a precast 16% polyacrylamide gel (Thermo Fisher, Oxford, UK) for 2 h and the separated proteins were transferred to nitrocellulose membranes (Bio-Rad, UK), then blocked with 5% (wt:vol) skimmed milk in Tris-buffered saline with 0.1% (vol:vol) Tween 20 (TBST solution) at room temperature and incubated with 1:200 dilution of anti-pAKT (Ser473) antibody (Merck Life Science Limited, Watford, Hertfordshire UK) or 1:200 cleaved-CASP-3 antibody (Insight Biotechnology, UK) at 4 °C overnight. β-Actin (1:20,000) was used as an internal loading control to normalize between lanes during densitometry. The appropriate secondary antibody for pAKT (anti-mouse), cleaved-CASP-3 (anti-mouse) was used at a concentration of 1:5000 (Insight Biotechnology Ltd, Wembley, Middlesex, UK) and incubated at room temperature for 1 h. […]

[3] = system: phosphor-AKT (Ser473); assay: Western blot of phospho-AKT (Ser473) levels in PC3 cells; type: cell-based, human
Experimental: as §4

[4] = system: CB2 receptors; set-up: method as in PMID 19286662; settings: hCB1/CB2-CHO transfected cells, β-arrestin assay; cited from earlier work
[5] = system: LNCaP cells; assay: Cell viability (MTT) assay in LNCaP cells; type: cell-based, human; settings: 24 h, DIM alone
Experimental: as §1, §2, §3

[6] = system: CB1 receptors; set-up: method as in PMID 19286662; settings: hCB1/CB2-CHO transfected cells; cited from earlier work
[7] = system: FSK-induced cAMP production in PC3 cells; assay: Cyclic AMP assay (HitHunter), FSK-induced cAMP production in PC3 cells; type: cell-based, human; settings: for Imax, inhibition of FSK-induced cAMP production / pIC50, inhibition of FSK-induced cAMP production / IC50: agonist alone; for IC50: read-out: IC50, inhibition of FSK-induced cAMP production
Experimental: The assays were performed using the HitHunter® cAMP assay kit (Eurofins DiscoverX Products, Celle-L’Evescault, France) according to the vendor’s protocol and previous studies. Briefly, cells were detached using cell dissociation buffer, counted and seeded at 2 × 10^4 cells per well in […] of complete medium onto white 96-well plates and incubated at 37 °C and 5% CO2 for approximately 24 h before running the experiment. The assays and the drug dilutions were performed in a 1:1 mixture of DMEM and Ham’s F12 medium without phenol red, containing […] of rolipram and forskolin (FSK; 7b-acetoxy-8,13-epoxy-1a,6b,9 atrihydroxylabd-14-en-11-one). Before running the assay, the medium was discarded, and cells were washed with D-MEM/F-12 medium. Then, cells were treated with the assigned drugs (30 μL per well) and incubated for 30 min at 37 °C and 5% CO2. Finally, cAMP standards and the appropriate mixture of kit components were added (as described by the manufacturer, Eurofins DiscoverX Products, Celle-L’Evescault, France). Plates were incubated overnight at room temperature in the dark. Chemiluminescent signals were detected on a Synergy HT Multi-Mode Microplate Reader (ThermoFisher Scientific, Loughborough, UK).
as §3

[8] = system: cannabinoid CB1 or CB2 receptors (PC3 cell membranes); assay: [35S]GTPγS binding in PC3 cell membranes; type: biochemical, human; settings: for EC50: agonist alone, read-out: EC50, stimulation of [35S]GTPγS binding
Experimental: (§5) Binding assays with [^35S]GTPγS were performed with PC3 or LNCaP cell membranes. Both PC3 and LNCaP cells were removed from flasks by scraping and then frozen as a pellet at −20 °C until required. Before use in a radioligand-binding assay, cells were defrosted, diluted in Tris buffer (50 mM Tris–HCl, 50 mM Tris-Base) and homogenized. Protein assays were performed using a Bio-Rad Dc kit (Bio-Rad©, Watford, UK).
(§6) The measurement of ligand-stimulated [^35S]GTPγS binding to cannabinoid CB1 or CB2 receptors was adapted from methods described previously. The assays were carried out with GTPγS-binding buffer (50 mM Tris–HCl, 50 mM Tris-Base, 5 mM MgCl2, 1 mM ethylenediaminetetraacetic acid, 100 mM NaCl, 1 mM dithiothreitol and 0.1% bovine serum albumin) in the presence of [^35S]GTPγS and GDP, in a final volume of 500 μL. Binding was initiated by the addition of [^35S]GTPγS to the wells. Non-specific binding was measured in the presence of 30 μM GTPγS. The drugs were incubated in the assay for 60 min at 30 °C. The reaction was terminated by a rapid vacuum filtration method using Tris-binding buffer, as described previously, and the radioactivity was quantified by liquid scintillation spectrometry. In all the [^35S]GTPγS-binding assays, we used 0.1 nM [^35S]GTPγS, 30 μM GDP and a protein concentration of 40 μg per well for PC3 and LNCaP cell membranes. Compounds were stored at −20 °C in DMSO.
Paired Student’s t-test or one-way ANOVA analysis of variance (with Tukey’s post hoc analysis) was used where appropriate for cell viability and western blotting data. A value of p < 0.05 was taken as being significant.

[9] = system: cannabinoid CB1 or CB2 receptors (LNCaP cell membranes); assay: [35S]GTPγS binding in LNCaP cell membranes; type: biochemical, human; settings: agonist alone, read-out: EC50, stimulation of [35S]GTPγS binding
Experimental: as §5
as §6, with “DMSO. […]” for “DMSO.”

c1ccc2c(Cc3c[nH]c4ccccc34)c[nH]c2c1 [DIM, 3-3′-Diindolylmethane]
IC50 [1]: 38900 nM
Imax, cell viability [1]: 8.50
pIC50, cell viability [1]: 4.410
Cleaved CASP-3 level ([2]; DIM 50 nM): significant increase
Cleaved CASP-3 level ([2]; DIM 50 µM): significant increase
pAKT level ([3]; DIM 50 nM): no significant reduction
pAKT level ([3]; DIM 50 µM): strong and significant reduction
Functional behaviour on CB2 receptors [4]: partially activate; also recorded: partial agonist
IC50 [5]: 85000 nM
Imax, cell viability [5]: -16.63
pIC50, cell viability [5]: 4.071
Functional behaviour on CB1 receptors [6]: slight inverse agonist
Imax, inhibition of FSK-induced cAMP production [7]: 17.36
pIC50, inhibition of FSK-induced cAMP production [7]: 7.870
IC50 [7]: 13.5 nM
Agonist behaviour in [35S]GTPγS binding [8]: full agonist behavior
EC50 [8]: 9.28 nM
EC50 [9]: 32.1 nM

Cc1c(C(=O)NN2CCCCC2)nn(-c2ccc(Cl)cc2Cl)c1-c1ccc(Cl)cc1 [SR1]
Effect of CB1 antagonist on DIM's inhibition of FSK-induced cAMP production [7]: no effect

CCCCCCC(C)(C)c1ccc([C@@H]2C[C@H](O)CC[C@H]2CCCO)c(O)c1 [CP 55,940]
Imax, inhibition of FSK-induced cAMP production [7]: 9.74
pIC50, inhibition of FSK-induced cAMP production [7]: 8.314
IC50 [7]: 4.85 nM
EC50 [8]: 6.14 nM
EC50 [9]: 2.56 nM
